# Experiments:
# PTPN11 = PTPN11 (Homo sapiens, UniProt Q06124); assay: PELSA compared with LiP-MS, SHP099-treated HeLa cell lysate; assay type: binding
# PPIP5K1 and PPIP5K2 = assay: PELSA, leucine-treated K562 cell lysate, PPIP5K1/2; assay type: binding; settings: 5 mM leucine, histidine phosphatase domains
# Description: (§1) These findings indicate the ability of PELSA to differentiate between distinct binding sites on a single protein. […] SLC1A5 is a membrane protein comprising intracellular, transmembrane, and extracellular regions. The Na-dicarboxylate_symporter domain (residues 54-483), located in the extracellular region, plays a key role in amino acid transport.
# LARS1 = LARS1 (Homo sapiens, UniProt Q9P2J5); settings: Kim S, et al., Cell Reports, 2021; read-out: dissociation constant, leucine-LARS1; cited from earlier work
# LARS1, sequence (Q9P2J5 whole entry, species assumed): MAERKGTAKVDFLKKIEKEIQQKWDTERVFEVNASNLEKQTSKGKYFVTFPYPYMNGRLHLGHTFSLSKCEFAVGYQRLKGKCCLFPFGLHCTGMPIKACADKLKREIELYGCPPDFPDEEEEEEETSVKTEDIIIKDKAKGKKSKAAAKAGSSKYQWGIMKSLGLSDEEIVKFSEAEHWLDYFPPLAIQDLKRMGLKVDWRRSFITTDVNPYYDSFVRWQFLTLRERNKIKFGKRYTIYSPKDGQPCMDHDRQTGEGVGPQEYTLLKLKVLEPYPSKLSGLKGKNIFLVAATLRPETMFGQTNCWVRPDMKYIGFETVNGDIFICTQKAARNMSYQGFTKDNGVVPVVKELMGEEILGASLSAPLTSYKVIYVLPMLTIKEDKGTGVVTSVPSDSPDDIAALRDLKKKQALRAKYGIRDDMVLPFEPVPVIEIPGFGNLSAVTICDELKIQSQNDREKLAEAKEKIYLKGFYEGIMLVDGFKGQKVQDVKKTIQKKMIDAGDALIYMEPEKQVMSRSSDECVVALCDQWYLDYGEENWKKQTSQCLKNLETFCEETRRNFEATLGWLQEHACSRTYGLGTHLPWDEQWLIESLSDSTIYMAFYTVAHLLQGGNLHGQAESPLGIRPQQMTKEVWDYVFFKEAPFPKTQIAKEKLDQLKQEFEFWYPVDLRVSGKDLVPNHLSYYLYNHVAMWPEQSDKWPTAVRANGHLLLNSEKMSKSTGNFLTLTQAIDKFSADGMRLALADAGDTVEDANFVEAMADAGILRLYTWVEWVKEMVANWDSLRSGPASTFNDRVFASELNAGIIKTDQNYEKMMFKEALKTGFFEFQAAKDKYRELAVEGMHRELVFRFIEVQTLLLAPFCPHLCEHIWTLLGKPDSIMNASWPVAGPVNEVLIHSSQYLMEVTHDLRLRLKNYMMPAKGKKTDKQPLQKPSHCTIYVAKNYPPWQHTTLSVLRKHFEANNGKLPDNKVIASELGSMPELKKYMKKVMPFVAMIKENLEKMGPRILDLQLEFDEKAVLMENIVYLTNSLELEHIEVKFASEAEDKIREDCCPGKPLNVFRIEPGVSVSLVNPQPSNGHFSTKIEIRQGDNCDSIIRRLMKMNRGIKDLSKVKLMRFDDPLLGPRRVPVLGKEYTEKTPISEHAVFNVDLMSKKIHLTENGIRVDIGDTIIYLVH
# [1] = system: LARS1, LARS2, GLUD1, and SENS2; assay: PELSA, leucine-treated K562 cell lysate, known targets; assay type: binding; settings: 5 mM leucine
# Description: as §1
# SLC1A5 = biological target: T1, SLC1A5 (Homo sapiens, UniProt Q15758); assay: PELSA, leucine-treated K562 cell lysate, SLC1A5; assay type: binding; settings: 5 mM leucine
# T1 construct: Protein-level volcano plot corresponding to 5 mM leucine-treated K562 cell lysates; endogenous in cells; host or cells: K562 cell lysate
# T1 sequence (Q15758 1-541): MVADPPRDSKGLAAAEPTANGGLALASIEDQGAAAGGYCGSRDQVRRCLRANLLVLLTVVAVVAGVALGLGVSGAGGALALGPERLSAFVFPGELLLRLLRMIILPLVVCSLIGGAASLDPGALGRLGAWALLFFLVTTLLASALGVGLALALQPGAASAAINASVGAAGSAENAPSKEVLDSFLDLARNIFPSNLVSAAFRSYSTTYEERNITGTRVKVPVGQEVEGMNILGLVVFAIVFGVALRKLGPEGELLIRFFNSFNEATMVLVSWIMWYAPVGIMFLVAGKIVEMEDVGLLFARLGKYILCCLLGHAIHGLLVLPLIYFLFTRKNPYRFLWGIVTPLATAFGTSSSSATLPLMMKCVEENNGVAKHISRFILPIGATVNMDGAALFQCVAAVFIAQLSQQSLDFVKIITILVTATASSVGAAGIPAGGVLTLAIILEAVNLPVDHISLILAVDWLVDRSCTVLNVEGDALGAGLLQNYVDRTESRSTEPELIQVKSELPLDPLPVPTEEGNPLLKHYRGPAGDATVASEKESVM
# Description: as §1
# [2] = system: kinases in K562 and HeLa lysates
# Description: (§3) We further compared the protein and peptide coverage depths of LiP-Quant, TPP, and PELSA.
# [3] = system: kinases in HeLa cell lysate; settings: 20 μM staurosporine
# Description: as §3
# [4] = system: kinases in K562 cell lysates; settings: cited from earlier work
# [5] = system: kinases in K562 cell lysate; assay: PELSA, staurosporine-treated K562 cell lysate; assay type: binding; settings: 20 μM staurosporine
# Description: as §3
# [6] = system: kinases in HeLa cell lysates; settings: kinase proportion ≥80%; cited from earlier work
# PTGES2 [7] = biological target: T2, PTGES2 (Homo sapiens, UniProt Q9H7Z7); assay: Western blotting of undigested PTGES2 after trypsin digestion; assay type: binding; parameters: collect the supernatant as the cell lysate; endogenous in cells; host or cells: BT474 cell lysate
# T2 sequence (Q9H7Z7 whole entry): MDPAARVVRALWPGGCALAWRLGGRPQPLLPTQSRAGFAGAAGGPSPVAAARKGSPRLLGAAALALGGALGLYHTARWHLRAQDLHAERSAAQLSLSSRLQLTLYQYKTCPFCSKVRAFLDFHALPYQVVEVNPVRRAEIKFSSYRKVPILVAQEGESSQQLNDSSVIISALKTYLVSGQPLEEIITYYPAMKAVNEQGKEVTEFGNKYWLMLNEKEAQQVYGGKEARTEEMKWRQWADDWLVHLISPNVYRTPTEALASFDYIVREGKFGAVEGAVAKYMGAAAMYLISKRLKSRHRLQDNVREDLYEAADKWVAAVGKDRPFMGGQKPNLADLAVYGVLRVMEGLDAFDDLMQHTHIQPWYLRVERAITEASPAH
# Method: To validate the binding of PTGES2 and lapatinib, we performed Western blotting using a similar procedure and conditions as mentioned above, with the following modifications: The lysis buffer is PBS. After lysis, the resulting cell lysates were divided into 8 portions and treated with equal volumes of lapatinib at different final concentrations (lapatinib dissolved in DMSO), as well as DMSO, resulting in final lapatinib concentrations of 100 μM, 50 μM, 10 μM, 1 μM, 0.1 μM, 0.01 μM, 0.001 μM, and 0. The mixtures were incubated at room temperature (25° C.) for 30 minutes. After incubation, trypsin was added at a 1:40 protease-to-protein weight ratio, and the mixture was subjected to digestion at 37° C. for 1 minute. The digestion was terminated by heating the samples to 95° C., followed by the addition of ¼ volume of 5*loading buffer, and heating at 95° C. for another 5 minutes. Western blotting was employed to detect the undigested proteins. The gel was concentrated at 80 V for 20 minutes, and then separated at 120 V for 60 minutes. Transfer blotting was conducted at a constant current of 250 mA for 40 minutes. After blocking, the primary antibody against PTGES2 (Proteintech, USA) was added at a 1:800 dilution and incubated at room temperature for 1 hour. […] The undigested protein bands were quantified based on their intensities, using GAPDH as a reference protein. […]
# [8] = system: CHEK2, SLK, RIPK2, and YES1; assay: PELSA, lapatinib-treated BT474 cell lysate, off-target kinases; assay type: binding; settings: increased lapatinib concentration (1 μM and above)
# PTGES2 [9] = biological target: T2, PTGES2; assay: PELSA, lapatinib-treated BT474 cell lysate, non-kinase off-target; settings: high concentrations of lapatinib
# Method: (1) Take a dish of BT474 cells (approximately 5e7 cells) and resuspend them in 1 mL lysis buffer (PBS supplemented with 1% (v/v) protease inhibitor (Sigma, catalog number P8340-5 mL)). Freeze-thaw the mixture three times (freeze in liquid nitrogen for two minutes, thaw in a 37° C. water bath for two minutes, repeat three times) to obtain crude cell lysates. Centrifuge the crude cell lysates at 500 g, 4° C. for 10 minutes, and collect the supernatant as the cell lysate. Determine the protein concentration using the Pierce™ 660 nm Protein Assay (Thermo, USA).
# (2) Adjust the protein concentration of the cell lysate to 1 mg/mL using cell lysis buffer. […]
# (6) The above-mentioned peptide mixture was reconstituted in 20 μL of 0.1% (v/v) formic acid (Sigma, Catalog No. V900803) and subjected to LC-MS/MS analysis. Each sample was analyzed once using data-independent acquisition (DIA) mass spectrometry. The Spectronaut software was used to identify and quantify the peptides, providing information on the corresponding protein, the peptide's location within the protein, and its abundance in each sample.
# (7) The abundance of peptides in the lapatinib-treated and untreated groups was statistically evaluated using Empirical Bayes t-test to determine the P-value and fold change for each peptide, representing the significance and magnitude of the peptide's abundance change upon lapatinib treatment. […]
# ERBB2 [10] = biological target: T3, ERBB2 (Homo sapiens, UniProt P04626); assay: PELSA, lapatinib-treated BT474 cell lysate; assay type: binding
# T3 sequence (P04626 23-1255): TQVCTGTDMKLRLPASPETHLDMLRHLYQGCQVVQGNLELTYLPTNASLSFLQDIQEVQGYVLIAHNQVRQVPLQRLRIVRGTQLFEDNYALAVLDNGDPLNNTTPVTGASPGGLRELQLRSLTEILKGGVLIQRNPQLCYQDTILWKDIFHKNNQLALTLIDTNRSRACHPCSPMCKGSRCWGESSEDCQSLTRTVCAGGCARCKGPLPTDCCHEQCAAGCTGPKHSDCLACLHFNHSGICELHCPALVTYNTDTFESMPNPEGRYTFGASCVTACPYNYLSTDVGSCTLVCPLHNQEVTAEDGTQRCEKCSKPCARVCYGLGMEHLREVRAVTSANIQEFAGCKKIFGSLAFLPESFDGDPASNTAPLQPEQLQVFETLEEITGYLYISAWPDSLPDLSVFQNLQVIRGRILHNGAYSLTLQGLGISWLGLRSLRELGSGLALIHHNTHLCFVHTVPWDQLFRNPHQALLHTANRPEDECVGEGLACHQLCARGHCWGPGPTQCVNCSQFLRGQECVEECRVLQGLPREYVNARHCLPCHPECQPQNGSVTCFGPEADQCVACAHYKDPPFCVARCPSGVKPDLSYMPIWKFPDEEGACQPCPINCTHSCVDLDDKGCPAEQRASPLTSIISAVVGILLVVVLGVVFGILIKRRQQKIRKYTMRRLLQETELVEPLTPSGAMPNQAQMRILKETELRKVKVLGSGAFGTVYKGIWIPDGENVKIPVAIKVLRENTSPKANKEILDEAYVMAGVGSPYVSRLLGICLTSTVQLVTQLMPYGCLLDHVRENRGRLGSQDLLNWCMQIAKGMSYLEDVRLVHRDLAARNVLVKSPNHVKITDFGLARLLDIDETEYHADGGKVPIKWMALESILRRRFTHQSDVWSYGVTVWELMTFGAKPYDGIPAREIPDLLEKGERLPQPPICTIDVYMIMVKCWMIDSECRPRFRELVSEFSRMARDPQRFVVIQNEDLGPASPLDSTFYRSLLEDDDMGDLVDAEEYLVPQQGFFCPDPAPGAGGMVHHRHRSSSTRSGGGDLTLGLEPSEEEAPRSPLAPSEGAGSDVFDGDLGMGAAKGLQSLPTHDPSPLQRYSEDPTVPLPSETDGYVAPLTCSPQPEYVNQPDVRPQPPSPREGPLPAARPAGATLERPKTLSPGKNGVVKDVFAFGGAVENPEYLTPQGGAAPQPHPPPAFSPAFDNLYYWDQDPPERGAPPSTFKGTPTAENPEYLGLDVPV
# ERBB2 [11] = biological target: T3, ERBB2; settings: cited from earlier work
# MAT2A = biological target: T4, MAT2A (Homo sapiens, UniProt P31153); assay: thermal shift assay with purified MAT2A; assay type: binding; settings: purified protein
# T4 construct: made in house
# T4 sequence (P31153 whole entry): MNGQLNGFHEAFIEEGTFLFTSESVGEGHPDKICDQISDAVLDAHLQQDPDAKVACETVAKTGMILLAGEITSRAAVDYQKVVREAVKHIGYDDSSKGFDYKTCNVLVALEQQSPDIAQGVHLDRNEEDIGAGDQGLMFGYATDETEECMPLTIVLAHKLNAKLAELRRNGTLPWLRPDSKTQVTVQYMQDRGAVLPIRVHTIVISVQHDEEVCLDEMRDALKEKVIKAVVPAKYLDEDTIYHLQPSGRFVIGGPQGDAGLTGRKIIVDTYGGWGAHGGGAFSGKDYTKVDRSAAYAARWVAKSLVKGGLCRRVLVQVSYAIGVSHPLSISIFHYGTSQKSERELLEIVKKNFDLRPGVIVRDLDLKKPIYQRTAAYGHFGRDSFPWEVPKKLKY
# Description: (§2) HSP90 proteins consist of three domains: the N-terminal ATP-binding domain, the middle domain, and the C-terminal domain. […] This finding further supports the capability of PELSA to accurately identify protein regions with changes in energy state. In addition to known target proteins, PELSA also identified several off-target proteins. […] PRDX family proteins play a protective role by clearing ROS under oxidative stress conditions.
# MAT2A and AKR1C2 = assay: dimethyl labeling-based PELSA, MAT2A and AKR1C2; assay type: binding; settings: 100 μM
# AKR1C2 = biological target: T5, AKR1C2 (Homo sapiens, UniProt P52895); assay: thermal shift assay with purified AKR1C2; assay type: binding; settings: purified protein
# T5 construct: made in house
# T5 sequence (P52895 1-323): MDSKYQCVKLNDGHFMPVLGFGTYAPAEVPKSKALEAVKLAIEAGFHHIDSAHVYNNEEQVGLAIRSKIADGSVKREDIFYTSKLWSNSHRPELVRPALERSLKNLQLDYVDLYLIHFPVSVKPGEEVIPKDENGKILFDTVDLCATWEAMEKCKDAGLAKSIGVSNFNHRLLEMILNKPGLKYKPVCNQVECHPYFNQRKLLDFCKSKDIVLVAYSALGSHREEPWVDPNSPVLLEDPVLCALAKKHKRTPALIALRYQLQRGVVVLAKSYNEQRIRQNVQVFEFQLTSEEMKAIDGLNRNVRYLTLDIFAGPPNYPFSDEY
# Description: as §2
# [12] = system: proteins containing the SH2 domain; assay: pulldown experiment with Biotin-pYEEI, BT474 cell lysate; assay type: binding; settings: 100 μM Biotin-pYEEI
# Method: The pulldown experiment was conducted as follows: The cell lysate is from BT474 cells, and the cell lysis was performed as described in Example 1. […] Two additional 100 μL samples were treated with Biotin-pSEEI at a final concentration of 100 μM and Biotin-YEEI at a final concentration of 100 μM, respectively, serving as control groups. This process was repeated three times, and the samples were incubated with ligands at room temperature for 30 minutes. After incubation, 200 μL of avidin beads (Thermo, USA) were added to each group and incubated overnight at 4° C. Subsequently, the beads were washed four times with a washing buffer (1% phosphatase inhibitor, and 0.5% NP40 in PBS), followed by four washes with a cell lysis buffer (1% phosphatase inhibitor in PBS solution). The proteins were eluted by adding 100 μL of HEPES buffer (pH 8.2) containing 8M guanidine hydrochloride, and the elution step was repeated twice. The eluted proteins were alkylated by adding 10 mM TCEP and 40 mM CAA, followed by heating at 95° C. for 5 minutes. The eluted protein solution was transferred to an ultrafiltration unit and centrifuged at 14,000 g for 30 minutes to remove the buffer. The ultrafiltration membrane was washed twice with 200 μL of a 10 mM ammonium bicarbonate (NH4HCO3) buffer. […]
# [13] = system: proteins of Escherichia coli; settings: Piazza I et al., Cell, 2018; cited from earlier work
# [14] = system: metal ion-binding proteins in HeLa cell lysate; assay: PELSA, zinc chloride-treated HeLa cell lysate; settings: 30 μM zinc chloride
# Method: After cell lysis following the procedure described in Example 1, the added EDTA was removed using Zeba Spin desalting columns (Thermo Fisher Scientific) through two rounds of protein desalting. A final concentration of 30 μM zinc chloride (Sigma, catalog number 450111-10G) was added to the 50 μL cell lysate, serving as the experimental group. Proteins meeting the criteria of −log 10Pvalue>3 and log 2FC<−0.5 were considered as proteins stabilized by Zn2+.
# [15] = system: metal ion-binding proteins in HeLa cell lysate; assay: PELSA, zinc chloride-treated HeLa cell lysate; settings: −log 10Pvalue>6 and log 2FC>0
compound,measurement,setting,value
SHP099,fold change of PTPN11 peptide at the SHP099-binding site,PTPN11; 10 μM SHP099,exhibited fold changes exclusively in PELSA experiments
same,"number of SHP099-responsive PTPN11 peptides, PELSA relative to LiP-MS","PTPN11; 10 μM SHP099, HeLa cell lysate",5.25 times
same,"response magnitude of PTPN11 peptides to SHP099, PELSA relative to LiP-MS","PTPN11; 10 μM SHP099, HeLa cell lysate",6.4 times
CC(C)C[C@H](N)C(=O)O [leucine],stabilization of PPIP5K1 and PPIP5K2,PPIP5K1 and PPIP5K2,stabilized PPIP5K1 and PPIP5K2
same,Kd,LARS1,95 µM
same,"energy state changes of LARS1, LARS2, GLUD1, SENS2",[1],significant changes in the energy states
same,energy state change of SLC1A5,SLC1A5,significant changes in the energy state of SLC1A5
CN[C@@H]1C[C@H]2O[C@@](C)([C@@H]1OC)n1c3ccccc3c3c4c(c5c6ccccc6n2c5c31)C(=O)NC4 [staurosporine],proportion of kinases among all target proteins,[2]; K562 and HeLa,80%
same,total staurosporine target proteins in the two cell lines,[2]; K562 and HeLa,192
same,significantly changed peptides located within or within 10 residues of kinase domains,[2]; both K562 and HeLa lysates,over 92%
same,total number of target proteins identified,[3],135
same,number of kinase targets identified by TPP,[4],53
same,total number of target proteins identified by TPP,[4],60
same,total number of target proteins identified,[5],143
same,number of kinase targets identified by LiP-Quant,[6],9
CS(=O)(=O)CCNCc1ccc(-c2ccc3ncnc(Nc4ccc(OCc5cccc(F)c5)c(Cl)c4)c3c2)o1 [lapatinib],lapatinib concentration at which maximum PTGES2 protection was reached,PTGES2 [7]; Western blotting,50 µM
same,PTGES2 protected from digestion (Western blot band intensity),"PTGES2 [7]; lapatinib 0.001-100 μM, trypsin 1:40, 37° C. 1 minute",increasing amount of PTGES2 protein protected from digestion
same,energy state changes of other kinases,[8],"energy state changes in several other kinases such as CHEK2, SLK, RIPK2, and YES1"
same,energy state change of PTGES2,PTGES2 [9],exhibited changes in its energy state
same,location of significantly altered ERBB2 peptides,"ERBB2 [10]; 100 nM lapatinib, |log 2(fold change)|>0.3 & −log 10(P value)>2",only within or in close proximity to the kinase domain
same,resistance to proteolysis of peptides within the kinase domain of ERBB2,"ERBB2 [10]; lapatinib 100 μM, 10 μM and 1 μM",more resistant to proteolysis
same,affinity of lapatinib to ERBB2,ERBB2 [11],approximately 9 nM
CC(C)c1cc(-c2n[nH]c(=O)n2-c2ccc3c(ccn3C)c2)c(O)cc1O [ganetespib],thermal melting temperature of MAT2A,MAT2A,significantly increased
same,off-target proteins MAT2A and AKR1C2,MAT2A and AKR1C2,"two previously-unreported off-target proteins of ganetespib, namely MAT2A and AKR1C2"
same,thermal melting temperature / stabilization of AKR1C2,AKR1C2,significantly increased
Phosphorylated tyrosine-glutamate-glutamate-isoleucine [pYEEI],SH2 domain proteins determined as pYEEI-binding proteins in pulldown,[12],none of the proteins containing the SH2 domain was determined as pYEEI-binding proteins
alpha-ketoglutarate [αKG],previously known αKG-binding proteins among LiP-MS targets,[13],2
same,target proteins identified by LiP-MS,[13],34
"[Cl-].[Cl-].[Zn+2] [Zn2+, zinc chloride]",Zn2+-binding proteins containing zinc finger motifs,[14],60
same,stability of 26S proteasome regulatory subunits PSMC1-6,[14],destabilization in the components of the 26S proteasome regulatory subunits
same,stabilized Zn2+-binding proteins,[14],112
same,stabilized known Ca2+-binding proteins,[14],25
same,stabilized known Fe2+-binding proteins,[14],15
same,stabilized known Mg2+-binding proteins,[14],20
same,stabilized known Mn2+-binding proteins,[14],9
same,stabilized known binding proteins of other metal ions,[14],6
same,stabilized proteins that are known binding proteins of other metal ions,[14],73
same,stabilized proteins that are known metal ion-binding proteins,[14],185
same,number of proteins stabilized by Zn2+,[14]; −log 10Pvalue>3 and log 2FC<−0.5,280
same,proportion of known metal ion-binding proteins among stabilized proteins,[14]; 19% in entire identified proteome,more than 66%
same,stability of proteins containing IQ motifs,[15],destabilization in several proteins containing IQ motifs

# Source: patent publication US20240410898A1, “METHOD FOR DETECTING PROTEIN HAVING CHANGES IN ENERGY STATE, OR AFFINITY OF LIGAND TO PROTEIN” (DALIAN INSTITUTE OF CHEMICAL PHYSICS, CHINESE ACADEMY OF …, priority 2022, published 2024)
